Here are results for eight compounds from patent publication US6827949B2, “Wood preservative” (Takeda Chemical Industries, Ltd., priority 2001, dated 2004).

The subject of assay [1] is worker ants of Coptotermes formosanus. Description: Damage (ingestion) inhibition test (filter paper). The class given is in vivo. More on the design: key: 0: No damage; 1: Damage of ½ or less; 2: Damage of ½ to ¾; 3: Damage of ¾ with some remainder; 4: Complete damage. The conditions noted are these: filter paper immersed in 1 w/w % solution in acetone (hispidin in methanol); 100 worker ants; Control 4. The method, then: A 1 w/w % solution of each compound shown in Table 7 in acetone (except for hispidin which was prepared as a 1 w/w % solution in methanol) was prepared.
In this solution, a No.2 filter paper of 1×1 cm in size was immersed, taken out and then air-dried. It was then placed in a 11-K bottle in which 100 worker ants of Coptotermes formosanus had been kept, and the ingestion behavior was observed. Hispidin employed was a reagent produced by Calbiochem.

For another assay, the system named is Fomitopsis palustris. The assay can be described thus: Wood-decaying fungal growth inhibition test. It counts as cell-based. Also noted: key: 0: No growth; 1: Fungal growth. The conditions noted are these: filter paper immersed in 5 w/w % acetone solution, placed on Fomitopsis palustris on PDA medium; Control 1. An excerpt:
A No.2 filter paper of 1×1 cm in size was immersed in the solution, taken out and then air-dried. The filter was then placed on a Fomitopsis palustris which had been cultivated on a PDA medium in a petri dish and observed conditions of fungal growth for 8 weeks.

Assay [2] relates to spore mixture of Aspergillus niger, Penicillin funculosum, Aureobasidium pullulans and Gliocladium virens. The assay can be described thus: Woodstaining fungal growth inhibition test. It counts as cell-based. The conditions noted are these: filter paper immersed in 5 w/w % acetone solution, sprayed with spore mixture, 2% agar; Control 1. Also noted: key: 0: No fungal growth; 1: Fungal growth. An excerpt:
In the solution, a No.2 filter paper of 1×1 cm in size was immersed, taken out and then air-dried.
Aureobasidium pullulans and […]

Consider `COC1=CC(=O)OC(CCc2ccc(OC)cc2)C1` (stereo not shown) [5,6,7,8-Tetrahydroyangonin], for which, in assay [1], the “Damage degree after 1 week” value was 0. Moreover, the “Fungal growth after 8 weeks” value in the assay with Fomitopsis palustris is given as 0. Moreover, the “Fungal growth after 3 days” value in assay [2] came out at 0.
Turning to `COc1cc(/C=C/c2ccccc2)oc(=O)c1` [5,6-Dehydrokawain], the “Damage degree after 1 week” value in assay [1] was determined as 1. For the same compound, the “Fungal growth after 8 weeks” value with Fomitopsis palustris was 0. Moreover, the “Fungal growth after 3 days” value in assay [2] is given as 0.
Take `COC1=CC(=O)O[C@@H](CCc2ccccc2)C1` [7,8-Dihydrokawain]: in assay [1], the “Damage degree after 1 week” value is on record as 0. In addition, the “Fungal growth after 8 weeks” value with Fomitopsis palustris came to 0. Further, the “Fungal growth after 3 days” value in assay [2] was found to be 0.
On to `COC1=CC(=O)O[C@@H](CCc2ccc3c(c2)OCO3)C1` [7,8-Dihydromethysticin], for which the “Damage degree after 1 week” value in assay [1] amounted to 0. Further, the “Fungal growth after 8 weeks” value in the assay on Fomitopsis palustris turned out to be 0. The “Fungal growth after 3 days” value in assay [2] was determined as 0.
With `O=c1cc(O)cc(/C=C/c2ccc(O)c(O)c2)o1` [Hispidin, reference compound], the “Damage degree after 1 week” value in assay [1] was determined as 1.
On to `COC1=CC(=O)O[C@@H](/C=C/c2ccccc2)C1` [Kawain], for which the “Damage degree after 1 week” value in assay [1] is on record as 1. In addition, the “Fungal growth after 8 weeks” value with Fomitopsis palustris is listed as 0. Besides, the “Fungal growth after 3 days” value in assay [2] came to 0.
For the compound `COC1=CC(=O)O[C@@H](/C=C/c2ccc3c(c2)OCO3)C1` [Methysticin], the “Damage degree after 1 week” value in assay [1] turned out to be 0. In the assay with Fomitopsis palustris, the “Fungal growth after 8 weeks” value is 0. For the same compound, in assay [2], the “Fungal growth after 3 days” value is on record as 0.
With `COc1ccc(/C=C/c2cc(OC)cc(=O)o2)cc1` [Yangonin], the “Damage degree after 1 week” value in assay [1] was 1. The “Fungal growth after 8 weeks” value with Fomitopsis palustris came out at 0. Also, in assay [2], the “Fungal growth after 3 days” value was found to be 0.
